Data as given in ChEMBL document CHEMBL1201861, “Genomics of Drug Sensitity in Cancer screening data, Wellcome Trust Sanger Institute”.

Experiments:
THP-1 = test: cells; assay type: functional, cell-based, Homo sapiens; settings: Homo sapiens, THP-1;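 further: growth inhibition of THP-1 cells, read out via a cell viability assay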
Description: SANGER: Inhibition of human THP-1 cell growth in a cell viability assay.

PFSK-1 = test: cells; assay type: functional, cell-based; settings: Homo sapiens;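 further: cell viability assay measuring how strongly compounds suppress growth of human PFSK-1 cells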
Description: SANGER: Inhibition of human PFSK-1 cell growth in a cell viability assay.

Huh-7 = test: cells; assay type: functional, cell-based; settings: Homo sapiens;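 further: HuH-7 cell growth inhibition, read out with a cell viability assay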
Description: SANGER: Inhibition of human HuH-7 cell growth in a cell viability assay.

NCI-H1623 = test: cells; assay type: functional, cell-based; settings: Homo sapiens;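 further: cell viability assay used as the read-out for growth inhibition of NCI-H1623 cells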
Description: SANGER: Inhibition of human NCI-H1623 cell growth in a cell viability assay.

DOK = test: cells; assay type: functional, cell-based; settings: Homo sapiens;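 further: cell viability assay read-out, values reflect inhibition of cell growth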
Description: SANGER: Inhibition of human DOK cell growth in a cell viability assay.

UACC-893 = test: cells; assay type: functional, cell-based; settings: Homo sapiens
Description: SANGER: Inhibition of human UACC-893 cell growth in a cell viability assay.

IGR-1 = test: cells; assay type: functional, cell-based; settings: Homo sapiens;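 further: growth inhibition of human IGR-1 cells, read out with a cell viability assay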
Description: SANGER: Inhibition of human IGR-1 cell growth in a cell viability assay.

D-336MG = test: cells; assay type: functional, cell-based, Homo sapiens; settings: Homo sapiens, D-336MG
Description: SANGER: Inhibition of human D-336MG cell growth in a cell viability assay.

NCI-H2122 = test: cells; assay type: functional, cell-based; settings: Homo sapiens;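 further: growth inhibition of the cells, read out with a cell viability assay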
Description: SANGER: Inhibition of human NCI-H2122 cell growth in a cell viability assay.

DMS-273 = test: cells; assay type: functional, cell-based; settings: Homo sapiens
Description: SANGER: Inhibition of human DMS-273 cell growth in a cell viability assay.

5637 = test: cells; assay type: functional, cell-based; settings: Homo sapiens
Description: SANGER: Inhibition of human 5637 cell growth in a cell viability assay.

NUGC-3 = test: cells; assay type: functional, cell-based; settings: Homo sapiens;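 further: growth inhibition of human NUGC-3 cells, read out with a cell viability assay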
Description: SANGER: Inhibition of human NUGC-3 cell growth in a cell viability assay.

REH = test: cells; assay type: functional, cell-based, Homo sapiens; settings: Homo sapiens, REH;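 further: growth inhibition of REH cells determined with a cell viability read-out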
Description: SANGER: Inhibition of human REH cell growth in a cell viability assay.

M059J = test: cells; assay type: functional, cell-based; settings: Homo sapiens;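 further: growth inhibition of M059J cells, read out with a cell viability assay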
Description: SANGER: Inhibition of human M059J cell growth in a cell viability assay.

OAW-28 = test: cells; assay type: functional, cell-based; settings: Homo sapiens;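 further: growth inhibition of OAW-28 cells, read out with a cell viability assay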
Description: SANGER: Inhibition of human OAW-28 cell growth in a cell viability assay.

HGC-27 = test: cells; assay type: functional, cell-based; settings: Homo sapiens;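 further: growth inhibition of human HGC-27 cells, read out in a cell viability assay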
Description: SANGER: Inhibition of human HGC-27 cell growth in a cell viability assay.

LU-165 = test: cells; assay type: functional, cell-based, Homo sapiens; settings: Homo sapiens, LU-165
Description: SANGER: Inhibition of human LU-165 cell growth in a cell viability assay.

NCCIT = test: SANGER: Inhibition of human NCCIT cell growth in a cell viability assay.; assay type: functional, cell-based; settings: Homo sapiens, NCCIT
Ca9-22 = test: cells; assay type: functional, cell-based; settings: Homo sapiens;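 further: growth inhibition of Ca9-22 cells, read out with a cell viability assay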
Description: SANGER: Inhibition of human Ca9-22 cell growth in a cell viability assay.

PC-14 = test: cells; assay type: functional, cell-based; settings: Homo sapiens;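 further: cell viability assay measuring inhibition of PC-14 cell growth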
Description: SANGER: Inhibition of human PC-14 cell growth in a cell viability assay.

NCI-H748 = test: cells; assay type: functional, cell-based, Homo sapiens; settings: Homo sapiens, NCI-H748;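 further: growth inhibition of NCI-H748 cells, measured by a cell viability assay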
Description: SANGER: Inhibition of human NCI-H748 cell growth in a cell viability assay.

NCI-H1563 = test: cells; assay type: functional, cell-based; settings: Homo sapiens;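 further: growth inhibition of human NCI-H1563 cells, read out with a cell viability assay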
Description: SANGER: Inhibition of human NCI-H1563 cell growth in a cell viability assay.

COR-L279 = test: SANGER: Inhibition of human COR-L279 cell growth in a cell viability assay.; assay type: functional, cell-based; settings: Homo sapiens, COR-L279
SKG-IIIa = test: cells; assay type: functional, cell-based; settings: Homo sapiens;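 further: cell growth inhibition, read out with a cell viability assay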
Description: SANGER: Inhibition of human SKG-IIIa cell growth in a cell viability assay.

SK-MEL3 = test: cells; assay type: functional, cell-based, SK-MEL-3; settings: Homo sapiens;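 further: growth inhibition of human SK-MEL-3 cells, read out with a cell viability assay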
Description: SANGER: Inhibition of human SK-MEL-3 cell growth in a cell viability assay.

HCC1599 = test: cells; assay type: functional, cell-based, Homo sapiens; settings: Homo sapiens, HCC1599;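 further: growth inhibition of HCC1599 cells, read out in a cell viability assay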
Description: SANGER: Inhibition of human HCC1599 cell growth in a cell viability assay.

BFTC-905 = test: cells; assay type: functional, cell-based; settings: Homo sapiens
Description: SANGER: Inhibition of human BFTC-905 cell growth in a cell viability assay.

NCI-H2170 = test: cells; assay type: functional, cell-based; settings: Homo sapiens;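 further: cell viability assay measuring growth inhibition of human NCI-H2170 cancer cells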
Description: SANGER: Inhibition of human NCI-H2170 cell growth in a cell viability assay.

CP50-MEL-B = test: cells; assay type: functional, cell-based; settings: Homo sapiens;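 further: growth inhibition of the human cell line, measured with a cell viability read-out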
Description: SANGER: Inhibition of human CP50-MEL-B cell growth in a cell viability assay.

G-361 = test: cells; assay type: functional, cell-based; settings: Homo sapiens
HT-29 = test: cells; assay type: functional, cell-based; settings: Homo sapiens;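 further: growth inhibition of human HT-29 cells, read out by a cell viability assay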
Description: SANGER: Inhibition of human HT-29 cell growth in a cell viability assay.

NCI-H716 = test: cells; assay type: functional, cell-based, Homo sapiens; settings: Homo sapiens, NCI-H716;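 further: growth inhibition of human NCI-H716 cells, measured by a cell viability assay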
Description: SANGER: Inhibition of human NCI-H716 cell growth in a cell viability assay.

SW1710 = test: cells; assay type: functional, cell-based; settings: Homo sapiens;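 further: growth inhibition of SW1710 cells, determined with a cell viability assay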
Description: SANGER: Inhibition of human SW1710 cell growth in a cell viability assay.

HCC1395 = test: cells; assay type: functional, cell-based; settings: Homo sapiens;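 further: growth inhibition of HCC1395 cells, read out by a cell viability assay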
Description: SANGER: Inhibition of human HCC1395 cell growth in a cell viability assay.

IMR-5 = test: cells; assay type: functional, cell-based, Homo sapiens; settings: Homo sapiens, IMR-5; read-out: IC50;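 further: growth inhibition of human IMR-5 cells, read out with a cell viability assay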
Description: SANGER: Inhibition of human IMR-5 cell growth in a cell viability assay.

AU565 = test: cells; assay type: functional, cell-based; settings: Homo sapiens;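 further: cell viability assay measuring growth inhibition of human AU565 cells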
Description: SANGER: Inhibition of human AU565 cell growth in a cell viability assay.

CAPAN-1 = test: cells; assay type: functional, cell-based; settings: Homo sapiens;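 further: growth suppression of CAPAN-1 cells, read out by a cell viability assay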
Description: SANGER: Inhibition of human CAPAN-1 cell growth in a cell viability assay.

SCC-9 = test: cells; assay type: functional, cell-based; settings: Homo sapiens;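 further: Read-out is a cell viability assay, with values giving inhibition of cell growth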
Description: SANGER: Inhibition of human SCC-9 cell growth in a cell viability assay.

NCI-H358 = test: cells; assay type: functional, cell-based; settings: Homo sapiens;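 further: growth inhibition of NCI-H358 human cells, read out with a cell viability assay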
Description: SANGER: Inhibition of human NCI-H358 cell growth in a cell viability assay.

SK-MEL-30 = test: cells; assay type: functional, cell-based; settings: Homo sapiens;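 further: growth inhibition of SK-MEL-30 cells, determined with a cell viability assay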
Description: SANGER: Inhibition of human SK-MEL-30 cell growth in a cell viability assay.

AN3-CA = test: cells; assay type: functional, cell-based; settings: Homo sapiens;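 further: growth inhibition of human AN3-CA cells measured by a cell viability assay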
Description: SANGER: Inhibition of human AN3-CA cell growth in a cell viability assay.

MDA-MB-157 = test: cells; assay type: functional, cell-based; settings: Homo sapiens
Description: SANGER: Inhibition of human MDA-MB-157 cell growth in a cell viability assay.

CA46 = test: cells; assay type: functional, cell-based, Homo sapiens; settings: Homo sapiens, CA46;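 further: growth inhibition of human CA46 cells, read out by a cell viability assay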
Description: SANGER: Inhibition of human CA46 cell growth in a cell viability assay.

MC-IXC = test: cells; assay type: functional, cell-based; settings: Homo sapiens;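 further: growth inhibition of MC-IXC cells, read out with a cell viability assay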
Description: SANGER: Inhibition of human MC-IXC cell growth in a cell viability assay.

RD = test: cells; assay type: functional, cell-based; settings: Homo sapiens
Description: SANGER: Inhibition of human RD cell growth in a cell viability assay.

NCI-H596 = test: cells; assay type: functional, cell-based; settings: Homo sapiens;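 further: growth inhibition of NCI-H596 cells, read out with a cell viability assay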
Description: SANGER: Inhibition of human NCI-H596 cell growth in a cell viability assay.

CAL-33 = test: cells; assay type: functional, cell-based; settings: Homo sapiens;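 further: growth inhibition of CAL-33 cells, read out with a cell viability assay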
Description: SANGER: Inhibition of human CAL-33 cell growth in a cell viability assay.

SCC-25 = test: cells; assay type: functional, cell-based; settings: Homo sapiens;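 further: growth inhibition of SCC-25 cells, measured with a cell viability assay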
Description: SANGER: Inhibition of human SCC-25 cell growth in a cell viability assay.

CHP-126 = test: cells; assay type: functional, cell-based, Homo sapiens; settings: Homo sapiens, CHP-126
Description: SANGER: Inhibition of human CHP-126 cell growth in a cell viability assay.

OE19 = test: cells; assay type: functional, cell-based; settings: Homo sapiens;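 further: growth inhibition of OE19 cells, measured through a cell viability read-out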
Description: SANGER: Inhibition of human OE19 cell growth in a cell viability assay.

KOSC-2 = test: cells; assay type: functional, cell-based; settings: Homo sapiens;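 further: growth inhibition of KOSC-2 cells, read out by a cell viability assay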
Description: SANGER: Inhibition of human KOSC-2 cell growth in a cell viability assay.

SW1990 = test: cells; assay type: functional, cell-based; settings: Homo sapiens
Description: SANGER: Inhibition of human SW1990 cell growth in a cell viability assay.

PANC-03-27 = test: cells; assay type: functional, cell-based; settings: Homo sapiens
Description: SANGER: Inhibition of human PANC-03-27 cell growth in a cell viability assay.

NCI-H661 = test: cells; assay type: functional, cell-based; settings: Homo sapiens;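 further: cell viability assay read-out, IC50 being the concentration that inhibits growth of the cells by half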
Description: SANGER: Inhibition of human NCI-H661 cell growth in a cell viability assay.

CMK = test: cells; assay type: functional, cell-based, Homo sapiens; settings: Homo sapiens, CMK;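 further: growth inhibition of CMK cells, read out as cell viability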
Description: SANGER: Inhibition of human CMK cell growth in a cell viability assay.

CAL-62 = test: cells; assay type: functional, cell-based; settings: Homo sapiens;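 further: growth inhibition of CAL-62 cells, read out with a cell viability assay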
Description: SANGER: Inhibition of human CAL-62 cell growth in a cell viability assay.

CAL-148 = test: cells; assay type: functional, cell-based, Homo sapiens; settings: Homo sapiens, CAL-148
Description: SANGER: Inhibition of human CAL-148 cell growth in a cell viability assay.

NCI-H2452 = test: cells; assay type: functional, cell-based; settings: Homo sapiens;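 further: growth inhibition of NCI-H2452 cells, read out with a cell viability assay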
Description: SANGER: Inhibition of human NCI-H2452 cell growth in a cell viability assay.

HSC-2 = test: cells; assay type: functional, cell-based; settings: Homo sapiens;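 further: growth inhibition of human HSC-2 cells, read out by a cell viability assay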
Description: SANGER: Inhibition of human HSC-2 cell growth in a cell viability assay.

Measured: IC50

COC(=O)[C@H](CCSC)NC(=O)c1ccc(NC[C@@H](N)CS)cc1-c1ccccc1
> 1020 nM: all assays above
